Measured values reported in patent publication US9120804B2, “8-substituted 2-amino-[1,2,4] triazolo [1, 5-A] pyrazines as Syk tryrosine kinase inhibitors and GCN2 serin kinase inhibitors” (Merck Patent GmbH, priority 2012, dated 2015).

Biological target: T1, SYK (Homo sapiens, UniProt P43405)
T1 construct: 2.5 nM SYK, 400 nM Biotin-Aha-Aha-KEDPDYEWPSAKK
Test: SYK flash plate assay (enzyme assay)
Type: biochemical
Procedure, shortened: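 Radiometric Flashplate format: biotinylated peptide substrate (400 nM) and 33P-labelled ATP (10 μM) react with 2.5 nM enzyme for 1 hour at 30 °C in Hepes buffer, pH 7.5. After EDTA quench and washing, counts are taken; staurosporine defines non-specific signal, and IC50 values are derived.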

Row | SMILES | IC50
1 | CC1(C)CCNc2cc(Nc3nc4c(N5CC[C@@]6(CNC(=O)C6)C5)nccn4n3)ccc21 [E101, (R)-7-[2-(4,4-dimethyl-1,2,3,4-tetrahydro-quinolin-7-ylamino)-[1,2,4]triazolo[1,5-a]pyrazin-8-yl]-2,7-diaza-spiro[4.4]nonan-3-one] | < 100 nM
2 | CC1(C)CCNc2cc(Nc3nc4c(N5CCC6(CCNC6)C5)nccn4n3)ccc21 (centres unmarked) [E9, [8-(2,7-diaza-spiro[4.4]non-2-yl)-[1,2,4]triazolo[1,5-a]pyrazin-2-yl]-(4,4-dimethyl-1,2,3,4-tetrahydro-quinolin-7-yl)-amine] | < 100 nM
3 | Cn1cc(-c2nccn3nc(Nc4ccc(C(C)(C)C)cc4)nc23)cn1 [C62, (4-tert-butyl-phenyl)-[8-(1-methyl-1H-pyrazol-4-yl)-[1,2,4]triazolo[1,5-a]pyrazin-2-yl]-amine] | 100 to 300 nM
4 | CN1[C@@H]2CC[C@H]1C[C@@H](Nc1nccn3nc(Nc4ccc5c(c4)NC(=O)C5(C)C)nc13)C2 [E78, 3,3-dimethyl-6-[8-((1R,3R,5S)-8-methyl-8-aza-bicyclo[3.2.1]oct-3-ylamino)-[1,2,4]triazolo[1,5-a]pyrazin-2-ylamino]-1,3-dihydro-indol-2-one] | 100 to 300 nM
5 | CC1(C)C(=O)Nc2cc(Nc3nc4c(N5CCC6(CCNCC6)C5=O)nccn4n3)ccc21 [E141, 2-[2-(3,3-dimethyl-2-oxo-2,3-dihydro-1H-indol-6-ylamino)-[1,2,4]triazolo[1,5-a]pyrazin-8-yl]-2,8-diaza-spiro[4.5]decan-1-one] | 100 to 300 nM
6 | CC1(C)C(=O)Nc2cc(Nc3nc4c(N5CC[C@@]6(CC(=O)NC6=O)C5)nccn4n3)ccc21 [E16, (R)-7-[2-(3,3-dimethyl-2-oxo-2,3-dihydro-1H-indol-6-ylamino)-[1,2,4]triazolo[1,5-a]pyrazin-8-yl]-2,7-diaza-spiro[4.4]nonane-1,3-dione] | < 100 nM
7 | CC1(C)C(=O)Nc2cc(Nc3nc4c(N5CCC(CNCC(F)(F)F)C5)nccn4n3)ccc21 (centres unmarked) [E65, 3,3-dimethyl-6-(8-{3[(2,2,2-trifluoro-ethylamino)-methyl]-pyrrolidin-1-yl}-[1,2,4]triazolo[1,5-a]pyrazin-2-ylamino)-1,3-dihydro-indol-2-one] | 100 to 300 nM
8 | CN1CCC(C)(C)c2cc(-c3nccn4nc(Nc5ccc6c(c5)NC(=O)C6(C)C)nc34)ccc21 [E143, 3,3-dimethyl-6-[8-(1,4,4-trimethyl-1,2,3,4-tetrahydro-quinolin-6-yl)-[1,2,4]triazolo[1,5-a]pyrazin-2-ylamino]-1,3-dihydro-indol-2-one] | 100 to 300 nM
9 | CN1CCOc2cc(-c3nccn4nc(Nc5ccc6c(c5)NC(=O)C6(C)C)nc34)cnc21 [E144, 3,3-dimethyl-6-[8-(4-methyl-3,4-dihydro-2H-pyrido[3,2-b][1,4]oxazin-7-yl)-[1,2,4]triazolo[1,5-a]pyrazin-2-ylamino]-1,3-dihydro-indol-2-one] | < 100 nM
10 | N#Cc1ccc(Nc2nc3c(-c4ccccc4-c4ccccc4)nccn3n2)cc1O [C35, 4-(8-Biphenyl-2-yl-[1,2,4]triazolo[1,5-a]pyrazin-2-ylamino)-2-hydroxybenzonitrile] | 3000 to 50000 nM
11 | CC1(C)C(=O)Nc2cc(Nc3nc4c(N5CCC6(CCNC6=O)CC5)nccn4n3)ccc21 [E13, 8-[2-(3,3-dimethyl-2-oxo-2,3-dihydro-1H-indol-6-ylamino)-[1,2,4]triazolo[1,5-a]pyrazin-8-yl]-2,8-diaza-spiro[4.5]decan-1-one] | < 100 nM
12 | CC1(C)CNc2cc(Nc3nc4c(N5CCCCCC5)nccn4n3)ccc21 [E99, (8-azepan-1-yl-[1,2,4]triazolo[1,5-a]pyrazin-2-yl)-(3,3-dimethyl-2,3-dihydro-1H-indol-6-yl)-amine] | < 100 nM
13 | COc1cc(Nc2nc3c(N4CCN(C(=O)OC(C)(C)C)CC4)nccn3n2)cc(OC)c1 [D1, 4-[2-(3,5-dimethoxy-phenylamino)-[1,2,4]triazolo[1,5-a]pyrazin-8-yl]-piperazine-1-carboxylic acid tert-butyl ester] | 3000 to 50000 nM
14 | CC1(C)C(=O)Nc2cc(Nc3nc4c(N5CCCCC5)nccn4n3)ccc21 [E69, 3,3-dimethyl-6-(8-piperidin-1-yl-[1,2,4]triazolo[1,5-a]pyrazin-2-ylamino)-1,3-dihydro-indol-2-one] | < 100 nM
15 | CS(=O)(=O)Nc1ccc(-c2nccn3nc(Nc4ccc(N5CCOCC5)cc4)nc23)cc1 [C42, N-{4-[2-(4-morpholin-4-yl-phenylamino)-[1,2,4]triazolo[1,5-a]pyrazin-8-yl]-phenyl}-methanesulfonamide] | 300 to 3000 nM
16 | CC1(C)C(=O)Nc2cc(Nc3nc4c(N5CCC(C(=O)NC6CC6)C5)nccn4n3)ccc21 (centres unmarked) [E4, 1-[2-(3,3-dimethyl-2-oxo-2,3-dihydro-1H-indol-6-ylamino)-[1,2,4]triazolo[1,5-a]pyrazin-8-yl]-pyrrolidine-3-carboxylic acid cyclopropylamide] | 100 to 300 nM

Row | SMILES | IC50
17 | CC1(C)C(=O)Nc2cc(Nc3nc4c(N5CC[C@@]6(CCNC6)C5)nccn4n3)ccc21 [E106, 6-[(R)-8-(2,7-diaza-spiro[4.4]non-2-yl)-[1,2,4]triazolo[1,5-a]pyrazin-2-ylamino]-3,3-dimethyl-1,3-dihydro-indol-2-one] | < 100 nM
18 | c1ccc(-c2ccccc2-c2nccn3nc(Nc4cccc(N5CCOCC5)c4)nc23)cc1 [C17, (8-Biphenyl-2-yl-[1,2,4]triazolo[1,5-a]pyrazin-2-yl)-(3-morpholin-4-yl-phenyl)-amine] | 300 to 3000 nM
19 | CN(C)CC1(O)CCCN(c2nccn3nc(Nc4ccc5c(c4)NC(=O)C5(C)C)nc23)CC1 (centres unmarked) [E138, 6-[8-(4-dimethylaminomethyl-4-hydroxy-azepan-1-yl)-[1,2,4]triazolo[1,5-a]pyrazin-2-ylamino]-3,3-dimethyl-1,3-dihydro-indol-2-one] | 100 to 300 nM
20 | CC1(C)C(=O)Nc2cc(Nc3nc4c(-c5ccc(N(C(F)(F)F)C(F)(F)F)cc5)nccn4n3)ccc21 [E152, 6-{8-[4-(bis-trifluoromethyl-amino)-phenyl]-[1,2,4]triazolo[1,5-a]pyrazin-2-ylamino}-3,3-dimethyl-1,3-dihydro-indol-2-one] | 3000 to 50000 nM
21 | CC1(C)C(=O)Nc2cc(Nc3nc4c(N5C[C@H](O)C[C@@H]5c5cccc(F)c5)nccn4n3)ccc21 [E64, 6-{8-[(2R,4R)-2-(3-fluoro-phenyl)-4-hydroxy-pyrrolidin-1-yl]-[1,2,4]triazolo[1,5-a]pyrazin-2-ylamino}-3,3-dimethyl-1,3-dihydro-indol-2-one] | 300 to 3000 nM
22 | CC1(C)C(=O)Nc2cc(Nc3nc4c(NCCCNc5nccn6nc(Nc7ccc8c(c7)NC(=O)C8(C)C)nc56)nccn4n3)ccc21 [E117, 6-[[8-[3-[[2-[(3,3-dimethyl-2-oxo-indolin-6-yl)amino]-[1,2,4]triazolo[1,5-a]pyrazin-8-yl]amino]propylamino]-[1,2,4]triazolo[1,5-a]pyrazin-2-yl]amino]-3,3-dimethyl-indolin-2-one] | 3000 to 50000 nM
23 | CC1(C)C(=O)Nc2cc(Nc3nc4c(N5CCC[C@@H]5C(N)=O)nccn4n3)ccc21 [E22, (R)-1-[2-(3,3-dimethyl-2-oxo-2,3-dihydro-1H-indol-6-ylamino)-[1,2,4]triazolo[1,5-a]pyrazin-8-yl]-pyrrolidine-2-carboxylic acid amide] | 300 to 3000 nM
24 | COc1cccc(Nc2nc3c(-c4ccccc4C#N)nccn3n2)c1 [E31, 2-[2-(3-methoxy-phenylamino)-[1,2,4]triazolo[1,5-a]pyrazin-8-yl]-benzonitrile] | < 100 nM
25 | CC1(C)C(=O)Nc2cc(Nc3nc4c(N5CCc6ccc(C#N)cc6C5)nccn4n3)ccc21 [E124, 2-[2-(3,3-dimethyl-2-oxo-2,3-dihydro-1H-indol-6-ylamino)-[1,2,4]triazolo[1,5-a]pyrazin-8-yl]-1,2,3,4-tetrahydro-isoquinoline-7-carbonitrile] | < 100 nM
26 | CC1(C)CC(=O)Nc2cc(Nc3nc4c(N5CC[C@]6(CC(=O)NC6=O)C5)nccn4n3)ccc21 [E49, (S)-7-[2-(4,4-dimethyl-2-oxo-1,2,3,4-tetrahydro-quinolin-7-ylamino)-[1,2,4]triazolo[1,5-a]pyrazin-8-yl]-2,7-diaza-spiro[4.4]nonane-1,3-dione] | < 100 nM
27 | CC1(C)CCNc2cc(Nc3nc4c(N5CCC6(CC5)CNC(=O)C6)nccn4n3)ccc21 [E77, 8-[2-(4,4-dimethyl-1,2,3,4-tetrahydro-quinolin-7-ylamino)-[1,2,4]triazolo[1,5-a]pyrazin-8-yl]-2,8-diaza-spiro[4.5]decan-3-one] | < 100 nM
28 | CC1(C)CCNc2cc(Nc3nc4c(N5CC[C@]6(CNC(=O)C6)C5)nccn4n3)ccc21 [E86, (S)-7-[2-(4,4-dimethyl-1,2,3,4-tetrahydro-quinolin-7-ylamino)-[1,2,4]triazolo[1,5-a]pyrazin-8-yl]-2,7-diaza-spiro[4.4]nonan-3-one] | 100 to 300 nM
29 | CC1(C)C(=O)Nc2cc(Nc3nc4c(N5CCCc6ccccc65)nccn4n3)ccc21 [E108, 6-[8-(3,4-dihydro-2H-quinolin-1-yl)-[1,2,4]triazolo[1,5-a]pyrazin-2-ylamino]-3,3-dimethyl-1,3-dihydro-indol-2-one] | 300 to 3000 nM
30 | CC1(C)CC(=O)Nc2cc(Nc3nc4c(N5CCCC5c5ccccc5)nccn4n3)ccc21 (centres unmarked) [E93, 4,4-dimethyl-7-[8-(2-phenyl-pyrrolidin-1-yl)-[1,2,4]triazolo[1,5-a]pyrazin-2-ylamino]-3,4-dihydro-1H-quinolin-2-one] | 300 to 3000 nM
31 | CC1(C)C(=O)Nc2cc(Nc3nc4c(N5C[C@@H](O)C[C@@H]5c5ccccc5)nccn4n3)ccc21 [E5, 6-[8-((2R,4S)-4-hydroxy-2-phenyl-pyrrolidin-1-yl)-[1,2,4]triazolo[1,5-a]pyrazin-2-ylamino]-3,3-dimethyl-1,3-dihydro-indol-2-one] | 100 to 300 nM
32 | Cn1cc(-c2nccc3nc(Nc4ccc5c(c4)NC(=O)CCC5(C)C)nn23)cn1 [E155, 5,5-dimethyl-8-[5-(1-methyl-1H-pyrazol-4-yl)-[1,2,4]triazolo[1,5-c]pyrimidin-2-ylamino]-1,3,4,5-tetrahydro-benzo[b]azepin-2-one] | < 100 nM
